Measurements reported in patent publication US8969554B2, “6-acyl-1,2,4-triazine-3,5-dione derivative and herbicides” (Kumiai Chemical Industry Co., Ltd., priority 2010, dated 2015).

Tests used:
Assay type in all cases: in vivo
Design in all cases: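 index 0 to 10 in 10% steps of herbicidal effect with 10 meaning complete death and 0 below 10%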
Echinochloa oryzicola = test: Herbicidal activity by paddy field soil treatment (Test Example 1); details: 1000 g of effective component per hectare, evaluated on day 21 after the treatment, criteria of Table 72
Procedure: (§1) Test for Determining Herbicidal Activity by Paddy Field Soil Treatment A 100 cm^2 wide plastic pot was filled with a paddy field soil and, after watering and shuffling, seeds of each of Echinochloa oryzicola, Monochoria vaginalis, and Scirpus juncoides Rocxb. were sowed and watered to a depth of 3 cm. On the next day, the wettable powder obtained in view of Formulation example 1 was diluted with water and applied on water surface. The application amount was 1000 g of effective component per hectare. After that, the plants were cultivated in a greenhouse, and on day 21 after the treatment, evaluation was made by the criteria of Table 72 for determining the herbicidal effects. [table]

Monochoria vaginalis = test: as above; details: 1000 g of effective component per hectare, evaluated on day 21 after the treatment, criteria of Table 72
Procedure: as §1

Scirpus juncoides Rocxb. = test: as above; details: applied on water surface, 1000 g of effective component per hectare, day 21 after the treatment
Procedure: as §1

A. retroflexus [1] = test: Herbicidal activity by field soil treatment (Test example 2); details: 1000 g effective component per hectare, day 21 after the treatment
Procedure: (§2) [table] Test for Determining Herbicidal Activity by Field Soil Treatment A 80 cm^2 wide plastic pot was filled with a field soil and seeds of each of Echinochloa crus-galli, foxtail, Indian millet, and A. retroflexus were sowed and then covered with soil. The wettable powder produced with reference to the Formulation example 1 was diluted water, and applied on the soil surface by using a small sprayer in an amount of 1000 liters per hectare so that the effective component is 1000 g per hectare. After that, the plants were cultivated in a greenhouse, and on day 21 after the treatment, evaluation was made by the criteria described in Table 72 for determining the herbicidal effects.

Echinochloa crus-galli [2] = test: as above; details: 1000 g effective component per hectare, day 21 after the treatment
Procedure: as §2

Indian millet [3] = test: as above; details: 1000 g effective component per hectare, day 21 after the treatment
Procedure: as §2

A. retroflexus [4] = test: Herbicidal activity by field foliage treatment (Test example 3); details: 1000 g effective component per hectare, day 14 after the treatment
Procedure: (§3) [table] Test for Determining Herbicidal Activity by Field Foliage Treatment A 80 cm^2 wide plastic pot was filled with a field soil and seeds of each of Indian millet and A. retroflexus were sowed and then incubated for 2 weeks in a green house. The wettable powder produced with reference to the Formulation example 1 was diluted water, and applied from the air to entire body of the plant as foliage treatment by using a small sprayer in an amount of 1000 liters per hectare so that the effective component is 1000 g per hectare. After that, the plants were cultivated in a greenhouse, and on day 14 after the treatment, evaluation was made by the criteria described in Table 72 for determining the herbicidal effects.

Indian millet [5] = test: as above; details: 1000 g effective component per hectare, day 14 after the treatment
Procedure: as §3

Echinochloa crus-galli [6] = test: as above; details: 1000 g effective component per hectare, day 14 after the treatment
Procedure: as §3, with “Test example 3” for “[table]”

| SMILES | Herbicidal effects index number, Echinochloa oryzicola (Echinochloa oryzicola) | Herbicidal effects index number, Monochoria vaginalis (Monochoria vaginalis) | herbicidal effect index, S. juncoides Rocxb. (Scirpus juncoides Rocxb.) | herbicidal effect index, Amaranthus retroflexus (A. retroflexus [1]) | herbicidal effect index, Echinochloa crus-galli (Echinochloa crus-galli [2]) | herbicidal effect index, Abutilon theophrasti (Indian millet [3]) | herbicidal effect index, Amaranthus retroflexus (A. retroflexus [4]) | herbicidal effect index, Abutilon theophrasti (Indian millet [5]) | herbicidal effect index, Echinochloa crus-galli (Echinochloa crus-galli [6]) |
| --- | --- | --- | --- | --- | --- | --- | --- | --- | --- |
| Cc1cc(C)cc(-n2c(=O)c(C(=O)C3=C(O)CCCC3=O)nn(C)c2=O)c1 [I-88] | 10 | 10 | 10 | 10 | 8 | 10 | 10 | 9 | 8 |
| Cc1cc(F)cc(-n2c(=O)c(C(=O)C3=C(O)CCCC3=O)nn(C)c2=O)c1 [I-106] | 10 | 10 | 10 | 10 | 10 | 10 | 10 | 9 | 10 |
| Cc1cccc(-n2c(=O)c(C(=O)C3=C(O)CCCC3=O)nn(C)c2=O)c1F [I-107] | 10 | 10 | 10 | 10 | 8 | 10 | 10 | 9 | 7 |
| Cc1cccc(F)c1-n1c(=O)c(C(=O)C2=C(O)CCCC2=O)nn(C)c1=O [I-110] | 10 | 10 | 10 | 10 | 7 | 10 | 9 | 9 | 9 |
| Cc1cc(-n2c(=O)c(C(=O)C3=C(O)CCCC3=O)nn(C)c2=O)ccc1F [I-115] | 10 | 10 | 10 | 9 | 9 | 9 | 10 | 10 | 10 |
| COc1ccc(-n2c(=O)c(C(=O)C3=C(O)CCCC3=O)nn(C)c2=O)cc1Cl [I-119] | 9 | 10 | 10 | 10 | 8 | 9 | 10 | 9 | 9 |
| COc1cc(Cl)cc(-n2c(=O)c(C(=O)C3=C(O)CCCC3=O)nn(C)c2=O)c1 [I-120] | 8 | 10 | 10 | 10 | 8 | 9 | 10 | 9 | 9 |
| Cc1ccc(-n2c(=O)c(C(=O)C3=C(O)CCCC3=O)nn(C)c2=O)cc1Cl [I-125] | 10 | 10 | 10 | 10 | 7 | 8 | 10 | 10 | 10 |
| Cc1cc(-n2c(=O)c(C(=O)C3=C(O)CCCC3=O)nn(C)c2=O)ccc1Cl [I-135] | 10 | 10 | 10 | 10 | 9 | 9 | 10 | 10 | 10 |
| COc1ccc(-n2c(=O)c(C(=O)C3=C(O)CCCC3=O)nn(C)c2=O)cc1C [I-149] | 9 | 10 | 10 | 10 | 8 | 10 | 10 | 10 | 8 |
| Cn1nc(C(=O)C2=C(O)CCCC2=O)c(=O)n(-c2cccs2)c1=O [I-198] | 8 | 10 | 10 | 10 | 7 | 10 | 10 | 10 | 10 |
| CCn1nc(C(=O)C2=C(O)CCCC2=O)c(=O)n(-c2ccccc2)c1=O [I-259] | 10 | 10 | 10 | 10 | 10 | 8 | 10 | 10 | 10 |
| COc1cc(OC)nc(-n2c(=O)c(C(=O)C3=C(O)CCCC3=O)nn(C)c2=O)n1 [I-273] | 9 | 9 | 10 | 10 | 9 | 7 | 10 | 9 | 10 |
| Cc1cccc(-n2c(=O)c(C(=O)C3=C(O)CCCC3=O)nn(C)c2=O)n1 [I-279] | 8 | 8 | 10 | 10 | 7 | 10 | 10 | 10 | 9 |
| COc1ccc(-n2c(=O)c(C(=O)C3=C(O)CCCC3=O)nn(C)c2=O)cn1 [I-287] | 10 | 10 | 10 | 10 | 10 | 9 | 10 | 9 | 8 |
| Cn1nc(C(=O)C2=C(O)CCCC2=O)c(=O)n(CC2CCCO2)c1=O (stereo not drawn) [I-339] | 10 | 10 | 10 | 10 | 8 | 10 | 10 | 10 | 9 |
